The nature of data set [1]: Half life in nude mouse at 30 mg/kg, ip administered as single dose. Format: ADME, organism-based. The conditions noted are these: in vivo.
Data set [2] can be described thus: AUC (0 to t) in nude mouse at 30 mg/kg, ip administered as single dose. The data set is classed as ADME, organism-based. The conditions noted are these: in vivo.
The nature of data set [3]: Cmax in nude mouse at 30 mg/kg, ip administered as single dose. The data set is classed as ADME, organism-based. The arrangement: dose 30 mg/kg, route intraperitoneal. The conditions noted are these: in vivo.
Data set [4] in a line: Passive permeability of the compound by PAMPA method. The conditions noted are these: read-out: permeability. Format: physicochemical.
The nature of data set [5]: Tmax in nude mouse at 30 mg/kg, ip administered as single dose. The data set is classed as ADME, organism-based. The conditions noted are these: in vivo.

Each structure is given as a SMILES string.

`Cl.NC1CCc2c(Br)ccc(-c3ccccc3)c2CC1=O` (stereo not given) yielded a half-life in data set [1] of 35 min. Further, the AUC(0-t) in data set [2] is 190 ng·h/mL. In data set [3], this molecule yielded a Cmax of 115 ng/mL. In addition, in data set [4], the Papp worked out at 3.03 ×10⁻⁶ cm/s. Also, the time of peak concentration (Tmax) in data set [5] was 30 min.

The values above are taken from ChEMBL document CHEMBL3596108 (Bioorg Med Chem, 2015).
